In PubChem BioAssay (NCI):
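Dose response: 5 concentrations. Exposure: 48 h. Format: 96-well plates. Endpoint: linear interpolation; highest concentration if not reached. GI50: concentration for 50% inhibition of growth. TGI denotes the concentration required for complete inhibition of growth.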

Columns and labels:
Test in all cases: inhibition of tumour cell growth, NCI panel, 48 h
EKVX NSCLC = test system: EKVX NSCLC
SNB-75 CNS = test system: SNB-75 CNS
M14 melanoma = test system: M14 melanoma
T-47D breast = test system: T-47D breast
HT29 colon = test system: HT29 colon
RXF 393 renal = test system: RXF 393 renal
MDA-MB-435 = test system: MDA-MB-435
UACC-62 melanoma = test system: UACC-62 melanoma
CCRF-CEM leukemia = test system: CCRF-CEM leukemia
COLO 205 colon = test system: COLO 205 colon
OVCAR-3 ovarian = test system: OVCAR-3 ovarian
SR leukemia = test system: SR leukemia
MDA-MB-468 breast = test system: MDA-MB-468 breast
BT-549 breast = test system: BT-549 breast
CAKI-1 renal = test system: CAKI-1 renal
OVCAR-5 ovarian = test system: OVCAR-5 ovarian
SK-MEL-28 melanoma = test system: SK-MEL-28 melanoma
K-562 leukemia = test system: K-562 leukemia
TK-10 renal = test system: TK-10 renal
HCT-15 colon = test system: HCT-15 colon
NCI-H522 lung = test system: NCI-H522 lung
SW-620 colon = test system: SW-620 colon
NCI-H226 lung = test system: NCI-H226 lung
SF-268 CNS = test system: SF-268 CNS
MCF7 breast = test system: MCF7 breast
SK-OV-3 ovarian = test system: SK-OV-3 ovarian
LOX IMVI melanoma = test system: LOX IMVI melanoma
786-0 renal = test system: 786-0 renal
PC-3 prostate = test system: PC-3 prostate
SF-539 CNS = test system: SF-539 CNS
ACHN renal = test system: ACHN renal
SK-MEL-5 melanoma = test system: SK-MEL-5 melanoma
A549 NSCLC = test system: A549 NSCLC
DU-145 prostate = test system: DU-145 prostate
UO-31 renal = test system: UO-31 renal
SF-295 CNS = test system: SF-295 CNS
HOP-92 NSCLC = test system: HOP-92 NSCLC
NCI-H460 lung = test system: NCI-H460 lung
HOP-62 NSCLC = test system: HOP-62 NSCLC
IGROV1 ovarian = test system: IGROV1 ovarian
HCT-116 colon = test system: HCT-116 colon
UACC-257 melanoma = test system: UACC-257 melanoma
MALME-3M melanoma = test system: MALME-3M melanoma
MOLT-4 leukemia = test system: MOLT-4 leukemia
HL-60(TB) leukemia = test system: HL-60(TB) leukemia
OVCAR-8 ovarian = test system: OVCAR-8 ovarian
NCI-H23 lung = test system: NCI-H23 lung
A498 renal = test system: A498 renal
MDA-MB-231 breast = test system: MDA-MB-231 breast
HCC-2998 colon = test system: HCC-2998 colon
HS 578T breast = test system: HS 578T breast
SNB-19 CNS = test system: SNB-19 CNS
SK-MEL-2 melanoma = test system: SK-MEL-2 melanoma
RPMI-8226 leukemia = test system: RPMI-8226 leukemia
KM12 colon = test system: KM12 colon
SN12C renal = test system: SN12C renal
U251 CNS = test system: U251 CNS
OVCAR-4 ovarian = test system: OVCAR-4 ovarian

COc1ccc([C@H]2C(C(=O)c3ccc(Cl)cc3)C3(N[C@@H]2c2ccccc2)C(=O)Nc2ccc(Cl)cc23)cc1 (stereo partly specified)
GI50 (EKVX NSCLC): 6.43 µM | TGI (EKVX NSCLC): 30.7 µM | GI50 (SNB-75 CNS): 2.82 µM | TGI (SNB-75 CNS): 27.2 µM | GI50 (M14 melanoma): 2.99 µM | TGI (M14 melanoma): 12.7 µM | GI50 (T-47D breast): 2.61 µM | TGI (T-47D breast): 13.4 µM | GI50 (HT29 colon): 2.2 µM | TGI (HT29 colon): 8.71 µM | GI50 (RXF 393 renal): 2.93 µM | TGI (RXF 393 renal): 12 µM | GI50 (MDA-MB-435): 4.02 µM | TGI (MDA-MB-435): 14.5 µM | GI50 (UACC-62 melanoma): 2.13 µM | TGI (UACC-62 melanoma): 9.36 µM | GI50 (CCRF-CEM leukemia): 3.32 µM | TGI (CCRF-CEM leukemia): 25.1 µM | GI50 (COLO 205 colon): 6.72 µM | TGI (COLO 205 colon): 14.5 µM | GI50 (OVCAR-3 ovarian): 6.39 µM | TGI (OVCAR-3 ovarian): 23.1 µM | GI50 (SR leukemia): 2.08 µM | TGI (SR leukemia): 20.5 µM | GI50 (MDA-MB-468 breast): 7.07 µM | TGI (MDA-MB-468 breast): 19.8 µM | GI50 (BT-549 breast): 6.91 µM | TGI (BT-549 breast): 14.6 µM | GI50 (CAKI-1 renal): 1.53 µM | TGI (CAKI-1 renal): 15.1 µM | GI50 (OVCAR-5 ovarian): 6.48 µM | TGI (OVCAR-5 ovarian): 14.1 µM | GI50 (SK-MEL-28 melanoma): 6.47 µM | TGI (SK-MEL-28 melanoma): 13.6 µM | GI50 (K-562 leukemia): 2.31 µM | TGI (K-562 leukemia): 57.5 µM | GI50 (TK-10 renal): 7.42 µM | TGI (TK-10 renal): 19.8 µM | GI50 (HCT-15 colon): 3.86 µM | TGI (HCT-15 colon): 12.7 µM | GI50 (NCI-H522 lung): 5.24 µM | TGI (NCI-H522 lung): 14.3 µM | GI50 (SW-620 colon): 5.33 µM | TGI (SW-620 colon): 21.5 µM | GI50 (NCI-H226 lung): 6.64 µM | TGI (NCI-H226 lung): 14.8 µM | GI50 (SF-268 CNS): 3.21 µM | TGI (SF-268 CNS): 38 µM | GI50 (MCF7 breast): 1.91 µM | TGI (MCF7 breast): 13.1 µM | GI50 (SK-OV-3 ovarian): 11.5 µM | TGI (SK-OV-3 ovarian): 38.4 µM | GI50 (LOX IMVI melanoma): 2.75 µM | TGI (LOX IMVI melanoma): 14 µM | GI50 (786-0 renal): 5.11 µM | TGI (786-0 renal): 20 µM | GI50 (PC-3 prostate): 1.99 µM | TGI (PC-3 prostate): 10.6 µM | GI50 (SF-539 CNS): 7.28 µM | TGI (SF-539 CNS): 16.6 µM | GI50 (ACHN renal): 2.32 µM | TGI (ACHN renal): 17.9 µM | GI50 (SK-MEL-5 melanoma): 9.38 µM | TGI (SK-MEL-5 melanoma): 17.9 µM | GI50 (A549 NSCLC): 2.4 µM | TGI (A549 NSCLC): 13.7 µM | GI50 (DU-145 prostate): 7.91 µM | TGI (DU-145 prostate): 27 µM | GI50 (UO-31 renal): 1.74 µM | TGI (UO-31 renal): 10.8 µM | GI50 (SF-295 CNS): 3.08 µM | TGI (SF-295 CNS): 13.1 µM | GI50 (HOP-92 NSCLC): 2.38 µM | TGI (HOP-92 NSCLC): 10.7 µM | GI50 (NCI-H460 lung): 2.5 µM | TGI (NCI-H460 lung): 9.26 µM | GI50 (HOP-62 NSCLC): 6.75 µM | TGI (HOP-62 NSCLC): 14.5 µM | GI50 (IGROV1 ovarian): 3.54 µM | TGI (IGROV1 ovarian): 13.7 µM | GI50 (HCT-116 colon): 2.62 µM | TGI (HCT-116 colon): 10.5 µM | GI50 (UACC-257 melanoma): 6.69 µM | TGI (UACC-257 melanoma): 18.6 µM | GI50 (MALME-3M melanoma): 8.38 µM | TGI (MALME-3M melanoma): 16.1 µM | GI50 (MOLT-4 leukemia): 1.95 µM | TGI (MOLT-4 leukemia): 56.6 µM | GI50 (HL-60(TB) leukemia): 4.1 µM | TGI (HL-60(TB) leukemia): 22.2 µM | GI50 (OVCAR-8 ovarian): 4.98 µM | TGI (OVCAR-8 ovarian): 14 µM | GI50 (NCI-H23 lung): 6.19 µM | TGI (NCI-H23 lung): 16.2 µM | GI50 (A498 renal): 8.68 µM | TGI (A498 renal): 22.4 µM | GI50 (MDA-MB-231 breast): 4.87 µM | TGI (MDA-MB-231 breast): 12.2 µM | GI50 (HCC-2998 colon): 2.09 µM | TGI (HCC-2998 colon): 8.15 µM | GI50 (HS 578T breast): 7.49 µM | TGI (HS 578T breast): 24.9 µM | GI50 (SNB-19 CNS): 6.5 µM | TGI (SNB-19 CNS): 46.5 µM | GI50 (SK-MEL-2 melanoma): 6.16 µM | TGI (SK-MEL-2 melanoma): 13.4 µM | GI50 (RPMI-8226 leukemia): 3.62 µM | TGI (RPMI-8226 leukemia): 48 µM | GI50 (KM12 colon): 2.44 µM | TGI (KM12 colon): 12.8 µM | GI50 (SN12C renal): 3 µM | TGI (SN12C renal): 10.4 µM | GI50 (U251 CNS): 5.5 µM | TGI (U251 CNS): 13 µM | GI50 (OVCAR-4 ovarian): 5.77 µM | TGI (OVCAR-4 ovarian): 27.1 µM
